Test results from patent US8507479B2, “Aminodihydrothiazine derivatives substituted with a cyclic group” (Shionogi & Co., Ltd., priority 2007, dated 2013).

Biological target: Recombinant human BACE-1 (Homo sapiens (Human), UniProt P56817)
Experiment: Assay of β-secretase-inhibiting activity;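 further: enzyme cleavage of a biotinylated, Europium cryptate-labelled peptide substrate, incubated 3 h at 30 °C, then probed with Streptavidin-XL665 in KF-containing phosphate buffer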
Type: biochemical
Details: Recombinant human BACE-1, Table 139; read-out: IC50

Chain of Recombinant human BACE-1 (P56817 46-501): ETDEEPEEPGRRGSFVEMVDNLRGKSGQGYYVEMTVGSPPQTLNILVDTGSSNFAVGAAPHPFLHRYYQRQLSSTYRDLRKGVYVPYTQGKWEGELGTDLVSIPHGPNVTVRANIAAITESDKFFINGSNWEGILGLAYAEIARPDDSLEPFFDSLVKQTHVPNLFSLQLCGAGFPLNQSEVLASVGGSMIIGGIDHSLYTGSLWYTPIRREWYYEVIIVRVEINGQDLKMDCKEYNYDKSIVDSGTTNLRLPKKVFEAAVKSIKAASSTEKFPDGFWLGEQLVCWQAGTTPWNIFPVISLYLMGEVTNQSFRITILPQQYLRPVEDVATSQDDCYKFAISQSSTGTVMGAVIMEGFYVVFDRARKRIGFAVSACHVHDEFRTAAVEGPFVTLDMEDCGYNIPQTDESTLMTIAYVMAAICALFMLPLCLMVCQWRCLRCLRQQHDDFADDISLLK

| IC50 [µM] | Compound |
| --- | --- |
| 4.85 | C[C@@]1(c2cccc(N/C(=N/O)c3ncc(Cl)cc3Cl)c2)CCSC(N)=N1 [Compound 26] |

Same assay, conditions: Recombinant human BACE-1, same assay, table; read-out: IC50

| IC50 [µM] | Compound |
| --- | --- |
| 0.2 | C[C@@]1(c2cc(NC(=O)c3cnc(NCC#N)cn3)ccc2F)CCSC(N)=N1 [Compound 701] |

Same assay, conditions: substrate peptide 18 nM, BACE-1 7.4 nM, pH 5.0, 30° C., 3 hours; read-out: IC50 values

| IC50 [µM] | Compound |
| --- | --- |
| ≤ 1 | C[C@@]1(c2ccnc(NC(=O)c3ccc(Cl)cn3)c2)CCSC(N)=N1 [Compound 598] |
| ≤ 1 | CC1(c2cc(NC(=O)c3cnc(Cl)cn3)ccc2Br)CCSC(N)=N1 (stereo not shown) [Compound 517] |
| ≤ 1 | COCCOc1cnc(C(=O)Nc2cc(F)c(F)c([C@]3(C)CCSC(N)=N3)c2)cn1 [Compound 148] |
| ≤ 1 | COc1cnc(C(=O)Nc2ccc(F)c([C@@]3(C)N=C(N)SCC3=O)c2)cn1 [Compound 689] |
| ≤ 1 | C[C@@]1(c2cncc(NC(=O)c3cnc(Cl)cn3)c2)CCSC(N)=N1 [Compound 597] |
| ≤ 1 | C[C@]1(c2cc(NC(=O)c3ncccc3F)ccc2F)N=C(N)SCC1(F)F [Compound 660] |
| ≤ 1 | Cc1nc(C(=O)Nc2cncc([C@]3(C)CCSC(N)=N3)c2)c(C)o1 [Compound 461] |
| ≤ 1 | Cc1nc(C(=O)Nc2ccnc([C@]3(C)CC(C)(C)SC(N)=N3)c2)co1 [Compound 654] |
| ≤ 1 | Cc1cnc(C(=O)Nc2cc([C@]3(C)CCSC(N)=N3)c3oc(C)cc3c2)cn1 [Compound 468] |
| ≤ 1 | Cc1cnc(C(=O)Nc2ccc(F)c([C@@]3(C)N=C(N)SCC3(F)F)c2)cn1 [Compound 662] |
| ≤ 1 | CC1(C)C[C@@](C)(c2cccc(NC(=O)c3ccc(C#N)cn3)c2)N=C(N)S1 [Compound 696] |
| ≤ 1 | CC1(C)C[C@@](C)(c2cc(NC(=O)c3ncccc3F)ccn2)N=C(N)S1 [Compound 655] |
| ≤ 1 | Cc1cnc(C(=O)Nc2cccc([C@]3(C)CCSC(N)=N3)c2)cn1 [Compound 563] |
| ≤ 1 | CC1(C)C[C@@](C)(c2cc(NC(=O)c3ccc(O)cn3)ccc2F)N=C(N)S1 [Compound 650] |
| ≤ 1 | Cc1nc(C(=O)Nc2cccc([C@]3(C)CCSC(N)=N3)c2)cs1 [Compound 10] |
| ≤ 1 | C[C@@]1(c2cc(NC(=O)c3ccc(OCC(N)=O)cn3)ccc2F)CCSC(N)=N1 [Compound 559] |
| ≤ 1 | C[C@@]1(c2cccc(NC(=O)c3ccc(Cl)cn3)n2)CCSC(N)=N1 [Compound 599] |
| ≤ 1 | CC(=O)c1ccc(C(=O)Nc2ccc(F)c([C@]3(C)CCSC(N)=N3)c2)s1 [Compound 530] |

| IC50 [µM] | Compound |
| --- | --- |
| ≤ 1 | C[C@@]1(c2cc(NC(=O)c3cnc(N=NN)cn3)ccc2F)CCSC(N)=N1 [Compound 79] |
| ≤ 1 | C[C@@]1(c2cc(NC(=O)c3ccc(OCC#CCN)cn3)ccc2F)CCSC(N)=N1 [Compound 566] |
| ≤ 1 | Cc1nc(C(=O)Nc2ccc(F)c([C@@]3(C)N=C(N)SCC3(C)C)c2)co1 [Compound 648] |
| ≤ 1 | CC1(C)C[C@@](C)(c2cc(NC(=O)c3coc(Cl)n3)ccc2F)N=C(N)S1 [Compound 645] |
| ≤ 1 | C[C@@]1(c2cc(NC(=O)c3cn4ccccc4n3)ccc2F)CCSC(N)=N1 [Compound 502] |
| ≤ 1 | Cc1nc(Br)sc1C(=O)Nc1cccc([C@]2(C)CCSC(N)=N2)c1 [Compound 6] |
| ≤ 1 | COc1cnc(C(=O)Nc2cccc([C@]3(C)CCSC(N)=N3)c2)c(N)n1 [Compound 29] |
| ≤ 1 | C[C@@]1(c2cc(NC(=O)c3ncc(O)cc3F)ccc2F)CCSC(N)=N1 [Compound 491] |
| ≤ 1 | C[C@@]1(c2cc(NC(=O)c3coc(C(F)(F)F)n3)ccc2F)CCSC(N)=N1 [Compound 669] |
| ≤ 1 | COc1nc(C(=O)Nc2ccc(F)c([C@]3(C)CCSC(N)=N3)c2)co1 [Compound 667] |
| ≤ 1 | Cn1nc(Cl)cc1C(=O)Nc1cncc([C@]2(C)CCSC(N)=N2)c1 [Compound 478] |
| ≤ 1 | Cc1cnn(-c2cnc(C(=O)Nc3ccc(F)c([C@]4(C)CCSC(N)=N4)c3)cn2)c1 [Compound 577] |
| ≤ 1 | Cc1nc(C)c(C(=O)Nc2cccc([C@]3(C)CCSC(N)=N3)c2)s1 [Compound 8] |
| ≤ 1 | Cc1nc(C(=O)Nc2ccc(F)c([C@@]3(C)N=C(N)SCC3(F)F)c2)co1 [Compound 664] |
| ≤ 1 | CCCCc1ccc(C(=O)Nc2ccc(F)c([C@@]3(C)N=C(N)SCC3(F)F)c2)nc1 [Compound 665] |
| ≤ 1 | Cc1cnc(C(=O)Nc2ccc(F)c([C@@]3(C)N=C(N)SCC34CC4)c2)cn1 [Compound 674] |
| ≤ 1 | C[C@@]1(c2cc(NC(=O)c3cnc(-c4ccsc4)cn3)ccc2F)CCSC(N)=N1 [Compound 537] |

| Compound | IC50 [µM] |
| --- | --- |
| Cc1cc(C(=O)Nc2ccc(F)c([C@]3(C)CCSC(N)=N3)c2)n(C(C)(C)C)n1 [Compound 538] | ≤ 1 |
| Cc1nc(C(=O)Nc2ccc(F)c([C@]3(C)CCSC(N)=N3)c2)cs1 [Compound 505] | ≤ 1 |
| Cc1cn2cc(C(=O)Nc3ccc(F)c([C@]4(C)CCSC(N)=N4)c3)ncc2n1 [Compound 652] | ≤ 1 |
